Reference: US12599590B2 (TriviumVet DAC, priority 2019, dated 2026)

Tests used:
[1] = Canine pharmacokinetics of enteric coated formulations at 0.15 mg/kg (T1) and 0.75 mg/kg (T5); format: in vivo; conditions: dogs, oral enteric coated formulation; for AUC(0-inf) / AUC(0-t) / Cmax / Tmax / half-life: dog, blood, po
[2] = Feline repeat dose toxicokinetic study of oral enteric-coated formulations; format: in vivo; conditions: whole blood, cats, oral enteric-coated formulation, Mean; for AUC(0-t): read-out: AUC0-72
Procedure: This represents a first-in-species repeat dose test toxicokinetic study in cats. Pharmacokinetic sampling was performed after the first and last doses.

[3] = system: healthy dogs; conditions: 0.05 or 0.1 mg/kg orally three times per week, 10 weeks; cited from earlier work
[4] = cited from earlier work
[5] = typical gastric pH range; cited from earlier work
[6] = 0.15 mg/kg, T1 0.15 mg/kg, Arith. Mean
[7] = 0.15 mg/kg, T1 0.15 mg/kg, Median
[8] = 0.75 mg/kg, T5 0.75 mg/kg, Arith. Mean
[9] = 0.75 mg/kg, T5 0.75 mg/kg, Median
[10] = 0.15 mg/kg, 0.15 mg/kg three times a week, Day 26, whole blood
[11] = 0.15 mg/kg, 0.15 mg/kg, Day 0, whole blood
[12] = 0.45 mg/kg, 0.45 mg/kg three times a week, Day 26, whole blood
[13] = 0.45 mg/kg, 0.45 mg/kg, Day 0, whole blood
[14] = 0.75 mg/kg, 0.75 mg/kg three times a week, Day 26, whole blood
[15] = 0.75 mg/kg, 0.75 mg/kg, Day 0, whole blood

Question: Which AUC(0-inf) [1, 6] does the source give for `CO[C@H]1C[C@@H]2CC[C@@H](C)[C@@](O)(O2)C(=O)C(=O)N2CCCC[C@H]2C(=O)O[C@H]([C@H](C)C[C@@H]2CC[C@@H](O)[C@H](OC)C2)CC(=O)[C@H](C)/C=C(\C)[C@@H](O)[C@@H](OC)C(=O)[C@H](C)C[C@H](C)/C=C/C=C/C=C/1C` [rapamycin] here?
Answer: 0.0427 µg·h/mL

Question: And the AUC(0-t) [1, 6]?
Answer: 0.0408 µg·h/mL

Question: What about the Cmax [1, 6] of the same molecule?
Answer: 2.23 ng/mL

Question: What about the Tmax [1, 6] of the same molecule?
Answer: 1.83 h

Question: What about the half-life [1, 6] of the same molecule?
Answer: 16.4 h

Question: And the AUC(0-inf) [1, 7]?
Answer: 0.0385 µg·h/mL

Question: What about the AUC(0-t) [1, 7] of the same molecule?
Answer: 0.0452 µg·h/mL

Question: And the Cmax [1, 7]?
Answer: 2.17 ng/mL

Question: What about the Tmax [1, 7] of the same molecule?
Answer: 2 h

Question: And the half-life [1, 7]?
Answer: 13.6 h

Question: And the AUC(0-inf) [1, 8]?
Answer: 0.102 µg·h/mL

Question: What about the AUC(0-t) [1, 8] of the same molecule?
Answer: 0.111 µg·h/mL

Question: What about the Cmax [1, 8] of the same molecule?
Answer: 4.41 ng/mL

Question: And the Tmax [1, 8]?
Answer: 2.17 h

Question: What about the half-life [1, 8] of the same molecule?
Answer: 20.2 h

Question: And the AUC(0-inf) [1, 9]?
Answer: 0.0984 µg·h/mL

Question: And the AUC(0-t) [1, 9]?
Answer: 0.0969 µg·h/mL

Question: And the Cmax [1, 9]?
Answer: 3.14 ng/mL

Question: And the Tmax [1, 9]?
Answer: 2 h

Question: What about the half-life [1, 9] of the same molecule?
Answer: 20.5 h

Question: And the kelim ([1]; T1 0.15 mg/kg, Arith. Mean)?
Answer: 0.0596 h⁻¹

Question: What about the kelim ([1]; T1 0.15 mg/kg, Median) of the same molecule?
Answer: 0.0627 h⁻¹

Question: And the kelim ([1]; T5 0.75 mg/kg, Arith. Mean)?
Answer: 0.0357 h⁻¹

Question: What about the kelim ([1]; T5 0.75 mg/kg, Median) of the same molecule?
Answer: 0.0338 h⁻¹

Question: And the Cmax [2, 10]?
Answer: 2.26 ng/mL

Question: And the AUC(0-t) [2, 10]?
Answer: 0.054 µg·h/mL

Question: And the Cmax [2, 11]?
Answer: 2.85 ng/mL

Question: What about the Tmax [2, 11] of the same molecule?
Answer: 4 h

Question: And the AUC(0-t) [2, 11]?
Answer: 0.041 µg·h/mL

Question: And the Cmax [2, 12]?
Answer: 6.98 ng/mL

Question: And the Tmax [2, 12]?
Answer: 2 h

Question: What about the AUC(0-t) [2, 12] of the same molecule?
Answer: 0.182 µg·h/mL

Question: What about the Cmax [2, 13] of the same molecule?
Answer: 4.4 ng/mL

Question: And the AUC(0-t) [2, 13]?
Answer: 0.0995 µg·h/mL

Question: What about the Cmax [2, 14] of the same molecule?
Answer: 8.07 ng/mL

Question: What about the Tmax [2, 14] of the same molecule?
Answer: 2 h

Question: What about the AUC(0-t) [2, 14] of the same molecule?
Answer: 0.248 µg·h/mL

Question: What about the Cmax [2, 15] of the same molecule?
Answer: 7.56 ng/mL

Question: What about the Tmax [2, 15] of the same molecule?
Answer: 2 h

Question: What about the AUC(0-t) [2, 15] of the same molecule?
Answer: 0.135 µg·h/mL

Question: What about the “clinical side effects and hematological changes” value [3] of the same molecule?
Answer: did not cause significant clinical side effects or abnormal hematological changes

Question: What about the solubility in water [4] of the same molecule?
Answer: poorly soluble in water

Question: And the acid stability [5]?
Answer: rapidly degrades within the typical gastric pH range
